This test can be described thus: Rotating Cage Autoclave Test (RCA), sour. The following applies: 150 ppm, 200 ppm H2S, 15% CO2, balance N2, 65° C., 70 bar, 72 hours, 1700 rpm. How it is done: In order to evaluate the corrosion inhibition efficacy of the polyesters according to the invention, 4 different test methods were employed: Linear Polarizing Resistance (LPR), Rotating Cylinder Electrode Test (RCE), Shell wheel test and High Pressure/High Temperature Rotating Cage Autoclave Test (RCA). For all testing 3.5% NaCl brine was used. For the application tests the materials to be tested (inventive as well as comparative) were diluted with butyl glycol to an active content of 25 wt.-% prior to testing. The dosage rates given in the tables refer to these 25 wt.-% active formulations.
Autoclaves equipped with rotating cages (RCA) were used to simulate high shear conditions for the purpose of evaluating system corrosivity and inhibitor performance. The testing solution consisted of 720 mL 3.5% NaCl brine and 80 mL LVT-200 oil. The synthetic brine had three cycles of vacuum/CO2 charge to the vessel prior to initiating the test to remove dissolved oxygen and to achieve an anaerobic system. Two weight loss corrosion coupons fixed on the rotating cage were used in each autoclave. General corrosion rates were calculated by weight loss measurement. A blank was run for comparison. Test conditions have been summarized below in Table 5.

As for “N-tallow alkyl hexahydropyrimidinium ethoxylate methosulfate [sample 6]”, the “Average corrosion rate [mpy]” value is on record as 8.99 mpy and the Percent protection is 92.8%.

These data come from patent US11845892B2, “Use of complex polyesteramines and polyester polyquaternary ammonium compounds as corrosion inhibitors” (Clariant International, Ltd., priority 2021, dated 2023).
